Drawing on US6682892B2, “Method for treating herpes viruses” (priority 2000, dated 2004), this text covers IC50 for four compounds.

Structures are written as SMILES. Read-outs that look alike come from different tables or passages of the source. Bounds are passed on as bounds.

Common to all, as to format: cell-based
One assay has as its system HSV-1 DJL. The experiment in a line: Plaque reduction assay, HSV-1 DJL. The note with it: Table 1, plaque reduction, Vero cells. The protocol:
(§1) Antiviral activity of compounds against herpesviruses such as HSV-1, HSV-2, or HCMV can be measured using plaque reduction assays. 0.1 ml of media containing approximately 50 PFU of virus is added to each well of a 24-well cell culture dish containing a confluent monolayer of cells (Vero cells for HSV-1 and HSV-2, HFF cells for HCMV). Compounds are dissolved in 100% DMSO and diluted in 100% DMSO as 200× stocks of the desired final drug concentration. Typically 5-6 two-fold dilutions are prepared for each compound. Dilutions of compounds are then added to media containing 0.8% CMC resulting in a final 1× drug concentration. After the virus-infected cells have incubated for 1 h at 37° C., the virus innoculum is removed and 1 ml of media containing 0.8% CMC and the various concentrations of compound is added to each well of the dish. The dish is incubated at 37° C. for approximately 2-3 days (HSV-1 and HSV-2) or 6-9 days (HCMV) to allow sufficient growth of virus to form plaques in the cell monolayer. Plaques can be observed and counted microscopically or by staining the cells with 0.1% crystal violet in 20% ethanol. […] Antiviral activity of a compound is expressed as the concentration of compound predicted to reduce the number of plaques in a well by 50% (IC50). The IC50 values are calculated by plotting the per cent inhibition vs. concentration of compound using EXCEL software for linear regression.
(§2) A panel of viruses consisting of four strains of HSV-1 (KOS, F, DJL, Patton) and three strains of HSV-2 (MS, 35D, 186) are tested in a plaque reduction assay against four different 4-oxo-DHQ compounds (#1, 2, 4, 5 as shown in FIG. 1), and one 4-oxo-DHTP compound (#3 as shown in FIG. 1) and against Acyclovir. The six drugs inhibited replication of the seven virus strains with IC50 values ranging from 2-10 μM (Table 1). In order to select for 4-oxo-DHQ resistant mutants, HSV-1 strains KOS, F, and DJL along with HSV-2 strains 186 and MS are serially passaged in the presence of 20 uM compound 1. Following the seventh passage, 4-oxo-DHQ resistant virus from each strain are plaque purified three times and high-titer stocks are made.
In general terms: Plaques are areas of infected cells; plaque reduction assays count them against a control.

A further assay has as its system HSV-1 Patton. The experiment in a line: Plaque reduction assay, HSV-1 Patton. The note with it: Table 1, plaque reduction, Vero cells. As for the experimental part:
as §1, §2

A further assay deals with HSV-1 F. Nature of the assay: Plaque reduction assay, HSV-1 F. The settings on record: Table 1, plaque reduction, Vero cells. As for the experimental part:
as §1, §2

Another assay relates to HSV-2 MS. The experiment in a line: Plaque reduction assay, HSV-2 MS. The protocol:
as §1, §2

The next assay has as its system HSV-2 MS-M1 (V826A). Nature of the assay: Plaque reduction assay, 4-oxo-DHQ resistant HSV-2 MS-M1. The protocol: as §1
(§3) Vero cells are plated out at a density of 3.5×10^5 cells per well in a six well tissue culture plate. Cells are infected with HSV-1 KOS at a multiplicity of infection (moi) of 0.1 pfu/cell and 1 h post infection the cells are overlayed with 3 ml media containing 20 uM of a 4-oxo-DHQ. Cultures are incubated for 20 h at 37° C., freeze/thawed to release cell-associated virus, and 0.1 ml of culture is used to infect a new monolayer of Vero cells (one passage). Serial passage is repeated seven times in the presence of 20 uM drug. Virus isolates are then plaque purified three times prior to preparation of stocks. 4-oxo-DHQ resistant HSV-1 and HSV-2 may also be selected by the marker transfer method described below using wild-type HSV DNA and the corresponding mutant HSV polymerase gene.
as §2

The subject of the next assay is HSV-1 KOS. Nature of the assay: Plaque reduction assay, HSV-1 KOS. The protocol: as §1, §2
For another assay, the system named is HSV-2 35D. The experiment in a line: Plaque reduction assay, HSV-2 35D. The note with it: Table 1, plaque reduction, Vero cells. As for the experimental part: as §1, §2
A further assay has as its system HSV-2 186. The experiment in a line: Plaque reduction assay, HSV-2 186. The note with it: Table 1, plaque reduction, Vero cells. As for the experimental part:
as §1, §2

The subject of a further assay is HSV-1 KOS-M1 (V823A). The experiment in a line: Plaque reduction assay, 4-oxo-DHQ resistant HSV-1 KOS-M1. The protocol:
as §1, §3, §2

For assay [1], the system named is HCMV AD169-M1 (V823A, V824L). The experiment in a line: Plaque reduction assay, 4-oxo-DHQ resistant HCMV AD169-M1. The settings on record: Table 5, mutant selected for 4-oxo-DHQ resistance; read-out: Plaque Reduction Assay - IC50 (μM) HCMV AD169-M1. As for the experimental part: as §1
A plasmid containing the wild-type HCMV polymerase gene is modified to contain the V823A or V823A and V824L mutations using a site-directed mutagenesis Kit (Stratagene Corp.) and following the manufactures's protocol. HFF cells are plated into T25 tissue culture flasks to achieve 80% confluency at the time of the transfection. Wild type HCMV AD 169 DNA and plasmid DNA containing the mutant HCMV polymerase gene are mixed at a ratio of 1:2 (2 ug of viral DNA to 4 ug of plasmid DNA). DNA's are transfected using superfect transfection reagent according to methods recommended by the manufacturer (Quiagen Inc.). Cells are harvested five days posttransfection, freeze-thawed to release virus and half of the sample is used to infect HFF cell monolayers. Cells are overlayed with media containing 20 uM 4-oxo-DHQ compound 2 (see FIG. 1). Serial passage is repeated seven times in the presence of 20 uM compound 2 and virus isolates are then plaque purified three times prior to preparation of viral stock.
In order to isolate an HCMV resistant mutant marker rescue experiments are done. Plasmids containing the mutant polymerase genes are transfected into HFF cells along with wild type HCMV AD169 DNA. The resulting virus is then serially passaged in the presence of 20 uM compound 1 (see FIG. 1). A 4-oxo-DHQ resistant virus is isolated from marker rescue studies done with the HCMV polymerase gene containing mutations that result in the V823A, V824L amino acid changes, but not with the gene containing V823A change alone.

The next assay deals with HCMV AD169. The experiment in a line: Plaque reduction assay, HCMV AD169. The note with it: Table 5, wild type strain; read-out: Plaque Reduction Assay - IC50 (μM) HCMV AD169. The protocol: as §1
Setting [2] is: Table 1, plaque reduction, Vero cells, read-out: IC50 (uM), HSV-2 MS.
[3] abbreviates: Table 5, wild type strain, read-out: Plaque Reduction Assay - IC50 (μM) HSV-2 MS.
Setting [4] is: Table 5, mutant selected for 4-oxo-DHQ resistance, read-out: Plaque Reduction Assay - IC50 (μM) HSV-2 MS-M1.
Where [5] appears, read: Table 1, plaque reduction, Vero cells, read-out: IC50 (uM), HSV-1 KOS.
Where [6] appears, read: Table 5, wild type strain, read-out: Plaque Reduction Assay - IC50 (μM) HSV-1 KOS.
[7] abbreviates: Table 5, mutant selected for 4-oxo-DHQ resistance, read-out: Plaque Reduction Assay - IC50 (μM) HSV-1 KOS-M1.

Usually IC50 stands for the concentration at which inhibition is half-maximal.

Regarding `Nc1nc2c(ncn2COCCO)c(=O)[nH]1` [ACV, Acyclovir, reference compound], the half-inhibitory concentration (IC50) amounted to 1.8 µM in the assay on HSV-1 DJL (Human alphaherpesvirus 1); 9.3 µM with HSV-1 Patton (Human alphaherpesvirus 1); 1.3 µM with HSV-1 F (Human alphaherpesvirus 1); 10 µM with HSV-2 MS (Human alphaherpesvirus 2, Table 1, plaque reduction, Vero cells, read-out: IC50 (uM), HSV-2 MS); 2.4 µM in the assay with HSV-2 MS (Human alphaherpesvirus 2, Table 5, wild type strain, read-out: Plaque Reduction Assay - IC50 (μM) HSV-2 MS); 2.8 µM in the assay with HSV-2 MS-M1 (V826A) (Human alphaherpesvirus 2, read-out: Plaque Reduction Assay - IC50 (μM) HSV-2 MS-M1). The IC50 with HSV-1 KOS (Human alphaherpesvirus 1, Table 1, plaque reduction, Vero cells, read-out: IC50 (uM), HSV-1 KOS) is 3.6 µM; in the assay with HSV-1 KOS (Human alphaherpesvirus 1, Table 5, wild type strain, read-out: Plaque Reduction Assay - IC50 (μM) HSV-1 KOS), 3.9 µM; with HSV-2 35D (Human alphaherpesvirus 2), 6 µM; with HSV-2 186 (Human alphaherpesvirus 2), > 10 µM; in the assay with HSV-1 KOS-M1 (V823A) (Human alphaherpesvirus 1, read-out: Plaque Reduction Assay - IC50 (μM) HSV-1 KOS-M1), 4.4 µM.
With `Cn1cc(C(=O)NCc2ccc(Cl)cc2)c(=O)c2cc(CN3CCOCC3)ccc21` [Compound 2], the IC50 in assay [1] is 4 µM; in the assay with HSV-1 DJL, 2.6 µM; in the assay on HSV-1 Patton, 5.3 µM; in the assay on HCMV AD169, 0.4 µM; with HSV-1 F, 2.3 µM; in the assay on HSV-2 MS (setting [2]), 2.5 µM. For the same compound, the IC50 is 1.3 µM in the assay on HSV-2 MS (setting [3]); > 50 µM in the assay with HSV-2 MS-M1 (V826A) (setting [4]); 3.8 µM with HSV-1 KOS (setting [5]); 3.3 µM in the assay on HSV-1 KOS (setting [6]); 5.4 µM in the assay on HSV-2 35D; 2.3 µM in the assay on HSV-2 186. Moreover, the IC50 in the assay with HSV-1 KOS-M1 (V823A) (setting [7]) was > 50 µM.
For the compound `Cn1cc(C(=O)NCc2ccc(Cl)cc2)c(=O)c2cc(CN3CCOCC3)sc21` [Compound 3], the IC50 was 6.2 µM in assay [1]; 1.8 µM in the assay with HSV-1 DJL; 7.7 µM with HSV-1 Patton; 1.5 µM in the assay with HCMV AD169; 2.2 µM with HSV-1 F; 2.8 µM in the assay with HSV-2 MS (setting [2]). Moreover, the half-maximal inhibitory concentration (IC50) in the assay with HSV-2 MS (setting [3]) is 0.8 µM; in the assay with HSV-2 MS-M1 (V826A) (setting [4]), > 50 µM; in the assay on HSV-1 KOS (setting [5]) it was 3.2 µM; in the assay with HSV-1 KOS (setting [6]) it was 4 µM; in the assay on HSV-2 35D it was 5 µM; with HSV-2 186, 3.2 µM. For the same compound, the IC50 in the assay with HSV-1 KOS-M1 (V823A) (setting [7]) was > 50 µM.
As to `O=C(NCc1ccc(Cl)cc1)c1cn2c3c(cc(CN4CCOCC4)cc3c1=O)OCC2` [Compound 4], the IC50 with HSV-1 DJL was 2.2 µM; with HSV-1 Patton it was 4.3 µM; in the assay on HCMV AD169, 0.6 µM; with HSV-1 F it was 2.1 µM; in the assay on HSV-2 MS (setting [2]), 2.5 µM; in the assay with HSV-2 MS (setting [3]) it was 2.1 µM. The IC50 was 28.4 µM in the assay with HSV-2 MS-M1 (V826A) (setting [4]); 3.2 µM in the assay on HSV-1 KOS (setting [5]); 4.2 µM with HSV-1 KOS (setting [6]); 3.2 µM with HSV-2 35D; 2.3 µM with HSV-2 186; > 50 µM with HSV-1 KOS-M1 (V823A) (setting [7]).
